# From patent publication US10195311B2, “Local delivery of drugs from self assembled coatings” (Interface Biologics, Inc., priority 2009, dated 2019)
# Assays:
# Format in all cases: physicochemical
# [1] = Drug shielding on Nylon 12 film, PTX release in porcine whole blood
# Procedure: (§1) Compounds 1, 7, and 14 (200 mg/mL) were dissolved in THF. PTX was added to each solution to make a 25 mg/mL solution. Nylon 12 film sheets were cut 1×1 cm size, blend solution was drop cast on the film sheet, dried in a 50° C. flow oven for 1 day. PTX alone was prepared the same way and used as the control. PBS pH 7.4 was pre-warmed to 37° C. Test articles and control articles were incubated in media (4 mL) at 37° C. for 10, 30, 60 and 120 minutes. At the end of each time point, media was exchanged and at the end of the study, the films were stripped with organic solvent, centrifuged, the supernatant collected, and solvent dried overnight at 60° C. The assessment of the drug shielding effect was analyzed by RP-HPLC with benzonitrile as the internal standard. 10 minute PTX release in PBS (ng/mL): Compound 1: 107.6, Compound 7: 79.7, Compound 14: 15.4, PTX alone: 651. The assessment of oligofluoro adhesion on film surface was done by NMR. A calibration curve for each compound was generated by NMR. Stripped coating was re-suspended in CDCl3 (1 mL) and NMR was performed. Quantity of remaining material was back calculated from NMR integration area. Percent remaining material after 120 minute incubation in PBS: Compound 1: 82.1, Compound 7: 85.5. Similar assessment of drug shielding on films was done with porcine whole blood. […]
# [2] = Oligofluoro as solubilizing agent, drug release from coated nylon films in water; conditions: drug at 4 wt %, nylon film, water 24 hours
# Procedure: Coating was made on nylon film by drop casting method. Control films with drug coated only was also prepared in a same manner. Coated nylon films were incubated in water for 24 hours to measure drug release.
# [3] = Drug shielding effect on Nylon 12 film, PTX release in PBS; conditions: PBS pH 7.4, 37° C.
# Procedure: as §1
smiles,measurement,setting,value
"CC(=O)O[C@H]1C(=O)[C@@]2(C)[C@H]([C@H](OC(=O)c3ccccc3)[C@]3(O)C[C@H](OC(=O)[C@H](O)[C@@H](NC(=O)c4ccccc4)c4ccccc4)C(C)=C1C3(C)C)[C@]1(OC(C)=O)CO[C@@H]1C[C@@H]2O [PTX, paclitaxel]",10 minute PTX release in blood,[1],75.6%
same,Percentage drug released in water,[2],11%
same,10 minute PTX release in PBS,[3],651 ng/mL
